Assay results published in paper PMC8007111, “Novel Potent Muscarinic Receptor Antagonists: Investigation on the Nature of Lipophilic Substituents in the 5- and/or 6-Positions of the 1,4-Dioxane Nucleus” (Journal of Medicinal Chemistry, 2020).

Key:
Conditions in all cases: [3H]NMS, CHO-K1 cell membranes, mean ± S.E.M.
hM3 mAChR = target: T1, hM3 mAChR (Homo sapiens, UniProt P20309); assay: [3H]NMS inhibition radioligand binding, hM3 in CHO-K1 cell membranes
T1 construct: expressed in transfected cells; host or cells: CHO-K1 (membrane preparation)
T1 sequence (P20309 whole entry): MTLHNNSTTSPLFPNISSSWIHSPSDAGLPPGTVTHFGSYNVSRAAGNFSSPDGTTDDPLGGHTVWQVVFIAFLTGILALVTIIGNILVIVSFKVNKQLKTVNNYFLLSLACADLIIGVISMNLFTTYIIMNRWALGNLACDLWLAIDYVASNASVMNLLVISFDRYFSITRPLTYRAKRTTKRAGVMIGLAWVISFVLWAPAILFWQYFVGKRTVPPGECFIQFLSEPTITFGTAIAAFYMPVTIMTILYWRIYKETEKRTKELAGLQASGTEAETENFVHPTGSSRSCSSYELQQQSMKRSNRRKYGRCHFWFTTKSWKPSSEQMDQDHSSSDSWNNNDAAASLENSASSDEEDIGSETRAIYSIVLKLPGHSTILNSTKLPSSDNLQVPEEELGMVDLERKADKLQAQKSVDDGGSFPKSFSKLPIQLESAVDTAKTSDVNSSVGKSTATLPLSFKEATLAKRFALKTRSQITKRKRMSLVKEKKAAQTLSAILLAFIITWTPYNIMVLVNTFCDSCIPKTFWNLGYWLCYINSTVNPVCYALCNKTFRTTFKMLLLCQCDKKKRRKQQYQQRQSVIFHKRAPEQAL
Experimental: (§1) CHO-K1 cells stably transfected with the human muscarinic receptor subtypes (hM1–5) were grown in Dulbecco’s modified Eagle’s medium (DMEM) with nutrient mixture F12 (DMEM/F12, 50/50), containing 10% fetal bovine serum, penicillin (100 U/mL), streptomycin (100 U/mL), L-glutamine (4 mM), and geneticin (G-418, 50 μg/mL) at 37 °C in a 5% CO2 humidified incubator. […] Serum (0.7 mL) was added to inactivate the trypsin, and the cells were spun down by centrifuging at 300g for 5 min. The cells were then resuspended in ice-cold 25 mM sodium phosphate buffer containing 5 mM MgCl2, pH 7.4 (binding buffer) and homogenized using a cell disrupter (Ultra-Turrax, setting 3, 30 s). The homogenate was sedimented by centrifugation (17,000g, 15 min). The supernatant was discarded, and the resulting membrane pellets were resuspended with Ultra-Turrax in the same buffer to give a final protein concentration of 1–2 mg/mL. The protein content was determined by the method of Bradford (1976) with bovine serum albumin (Sigma) as a standard and stored at −80 °C.
(§2) Inhibition radioligand binding assays were conducted as previously described[48],[49] with 0.2 nM [^3H]NMS in binding buffer in a final volume of 250 μL. Nonspecific binding was defined in the presence of 10 μM atropine. Briefly, membrane fractions (about 25–70 μg/mL of protein) were incubated with radioligand and unlabeled test compounds for 2 h at r.t. Bound and free radioactivity were separated by filtering the assay mixture through UniFilter GF/B plates using a FilterMate Cell Harvester (PerkinElmer Life and Analytical Science). The filter bound radioactivity was counted by a TopCount NXT Microplate Scintillation Counter (PerkinElmer Life and Analytical Science). Data (cpm) were normalized to percentage-specific binding and analyzed using a four-parameter logistic equation in GraphPad Prism 5.02; IC50 values were determined, and Ki values were calculated.[59]

hM2 mAChR = target: T2, hM2 mAChR (Homo sapiens, UniProt P08172); assay: [3H]NMS inhibition radioligand binding, hM2 in CHO-K1 cell membranes
T2 construct: expressed in transfected cells; host or cells: CHO-K1 (membrane preparation)
T2 sequence (P08172 1-466): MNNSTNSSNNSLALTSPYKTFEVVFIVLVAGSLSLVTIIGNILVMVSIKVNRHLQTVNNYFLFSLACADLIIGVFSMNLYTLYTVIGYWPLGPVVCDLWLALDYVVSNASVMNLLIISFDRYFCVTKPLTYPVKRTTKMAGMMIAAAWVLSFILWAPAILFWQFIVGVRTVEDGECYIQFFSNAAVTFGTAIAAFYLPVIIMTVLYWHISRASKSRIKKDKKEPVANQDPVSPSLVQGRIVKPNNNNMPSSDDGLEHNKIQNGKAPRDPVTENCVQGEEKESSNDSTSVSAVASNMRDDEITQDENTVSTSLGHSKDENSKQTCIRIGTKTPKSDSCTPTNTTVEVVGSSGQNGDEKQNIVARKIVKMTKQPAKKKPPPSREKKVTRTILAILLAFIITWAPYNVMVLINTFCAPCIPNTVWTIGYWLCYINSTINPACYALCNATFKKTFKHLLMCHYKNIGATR
Experimental: as §1, §2

hM4 mAChR = target: T3, hM4 mAChR (Homo sapiens, UniProt P08173); assay: [3H]NMS inhibition radioligand binding, hM4 in CHO-K1 cell membranes
T3 construct: expressed in transfected cells; host or cells: CHO-K1 (membrane preparation)
T3 sequence (P08173 1-479): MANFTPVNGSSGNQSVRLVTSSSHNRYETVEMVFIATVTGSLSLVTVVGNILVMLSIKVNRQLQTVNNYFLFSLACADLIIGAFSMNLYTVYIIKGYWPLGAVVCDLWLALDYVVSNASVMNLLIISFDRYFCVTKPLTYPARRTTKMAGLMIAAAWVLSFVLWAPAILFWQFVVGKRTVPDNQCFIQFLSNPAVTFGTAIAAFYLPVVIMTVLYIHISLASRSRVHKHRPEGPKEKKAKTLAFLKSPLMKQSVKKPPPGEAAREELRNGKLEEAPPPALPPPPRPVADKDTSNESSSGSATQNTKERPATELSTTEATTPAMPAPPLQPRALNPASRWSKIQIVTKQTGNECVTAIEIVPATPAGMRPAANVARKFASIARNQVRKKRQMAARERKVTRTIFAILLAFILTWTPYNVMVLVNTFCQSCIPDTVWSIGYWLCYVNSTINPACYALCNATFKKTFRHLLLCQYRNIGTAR
Experimental: as §1, §2

hM5 mAChR = target: T4, hM5 mAChR (Homo sapiens, UniProt P08912); assay: [3H]NMS inhibition radioligand binding, hM5 in CHO-K1 cell membranes
T4 construct: expressed in transfected cells; host or cells: CHO-K1 (membrane preparation)
T4 sequence (P08912 1-532): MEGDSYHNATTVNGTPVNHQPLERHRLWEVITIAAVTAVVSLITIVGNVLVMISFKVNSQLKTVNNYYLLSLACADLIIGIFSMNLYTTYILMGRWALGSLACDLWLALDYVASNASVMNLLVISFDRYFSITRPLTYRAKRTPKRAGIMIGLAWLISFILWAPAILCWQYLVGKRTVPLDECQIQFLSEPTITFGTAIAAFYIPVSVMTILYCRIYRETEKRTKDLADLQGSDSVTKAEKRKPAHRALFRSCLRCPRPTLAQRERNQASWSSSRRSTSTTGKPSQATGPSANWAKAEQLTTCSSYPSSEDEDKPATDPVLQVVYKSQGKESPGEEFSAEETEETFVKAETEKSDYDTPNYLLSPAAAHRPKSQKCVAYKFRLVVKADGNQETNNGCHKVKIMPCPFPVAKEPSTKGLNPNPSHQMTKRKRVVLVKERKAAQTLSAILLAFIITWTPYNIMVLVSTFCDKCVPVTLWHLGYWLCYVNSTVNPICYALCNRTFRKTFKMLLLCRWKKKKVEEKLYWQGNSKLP
Experimental: as §1, §2

hM1 mAChR = target: T5, hM1 mAChR (Homo sapiens, UniProt P11229); assay: [3H]NMS inhibition radioligand binding, hM1 in CHO-K1 cell membranes
T5 construct: expressed in transfected cells; host or cells: CHO-K1 (membrane preparation)
T5 sequence (P11229 1-460): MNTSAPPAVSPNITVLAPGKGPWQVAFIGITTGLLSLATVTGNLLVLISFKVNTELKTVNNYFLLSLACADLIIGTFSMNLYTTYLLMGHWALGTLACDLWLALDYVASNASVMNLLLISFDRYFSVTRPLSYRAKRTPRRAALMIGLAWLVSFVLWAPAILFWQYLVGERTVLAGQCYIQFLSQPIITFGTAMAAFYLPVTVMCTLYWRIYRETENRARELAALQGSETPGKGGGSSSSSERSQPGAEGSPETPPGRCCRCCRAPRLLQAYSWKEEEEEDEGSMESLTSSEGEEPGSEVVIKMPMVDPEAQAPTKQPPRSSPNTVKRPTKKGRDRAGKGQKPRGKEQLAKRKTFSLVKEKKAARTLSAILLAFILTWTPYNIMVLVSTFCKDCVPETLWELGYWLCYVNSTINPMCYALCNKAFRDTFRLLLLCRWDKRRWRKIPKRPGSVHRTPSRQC
Experimental: as §1, §2

SMILES | pKi hM3 (hM3 mAChR) | pKi hM2 (hM2 mAChR) | pKi hM4 (hM4 mAChR) | pKi hM5 (hM5 mAChR) | pKi hM1 (hM1 mAChR) | Ki (hM3 mAChR; read-out: pKi hM3 (converted)) | Ki (hM2 mAChR; read-out: pKi hM2 (converted)) | Ki (hM4 mAChR; read-out: pKi hM4 (converted)) | Ki (hM5 mAChR; read-out: pKi hM5 (converted)) | Ki (hM1 mAChR; read-out: pKi hM1 (converted))
C[N+](C)(C)C[C@@H]1COC[C@H](c2ccc(Sc3ccccc3)cc2)O1.[I-] (relative stereo) [6a, 1-((2R*,6S*)-6-(4-(Phenylthio)phenyl)-1,4-dioxan-2-yl)-N,N,N-trimethylmethanaminium Iodide] | <5 | 5.47 ± 0.07 | 5.43 ± 0.05 | 5.58 ± 0.13 | 5.50 ± 0.05 | – | – | – | – | –
C[N+](C)(C)C[C@@H]1COC[C@@H](c2ccc(S(=O)(=O)c3ccccc3)cc2)O1.[I-] (relative stereo) [8b, 1-((2R*,6R*)-6-(4-(Phenylsulfonyl)phenyl)-1,4-dioxan-2-yl)-N,N,N-trimethylmethanaminium Iodide] | 5.63 ± 0.14 | 6.70 ± 0.01 | 5.20 ± 0.07 | 5.80 ± 0.06 | 5.29 ± 0.07 | – | – | – | – | –
C[N+](C)(C)C[C@@H]1CO[C@@H](c2ccccc2)CO1.[I-] (relative stereo) [9b, 1-((2R*,5S*)-5-Phenyl-1,4-dioxan-2-yl)-N,N,N-trimethylmethanaminium Iodide] | <5 | <5 | <5 | <5 | <5 | – | – | – | – | –
C[N+](C)(C)C[C@@H]1CO[C@](c2ccccc2)(C2CCCCC2)CO1.[I-] (relative stereo) [11b, 1-((2R*,5S*)-5-Cyclohexyl-5-phenyl-1,4-dioxan-2-yl)-N,N,N-trimethylmethanaminium Iodide] | 7.36 ± 0.10 | 7.22 ± 0.11 | 7.23 ± 0.10 | 7.32 ± 0.09 | 7.81 ± 0.04 | – | – | – | – | –
C[N+](C)(C)C[C@@H]1COC[C@](c2ccccc2)(C2CCCCC2)O1 [(2R,6R)-(+)-3b, 1-((2R,6R)-6-Cyclohexyl-6-phenyl-1,4-dioxan-2-yl)-N,N,N-trimethylmethanaminium Iodide] | 7.51 ± 0.12 | 7.86 ± 0.14 | 7.45 ± 0.11 | 7.68 ± 0.35 | 8.30 ± 0.25 | – | – | – | – | –
C[N+](C)(C)C[C@@H]1CO[C@H](c2ccc([S+]([O-])c3ccccc3)cc2)CO1.[I-] (relative stereo) [16a, 1-((2R*,5R*)-5-(4-(Phenylsulfinyl)phenyl)-1,4-dioxan-2-yl)-N,N,N-trimethylmethanaminium Iodide] | <5 | 5.52 ± 0.02 | <5 | 5.21 ± 0.08 | <5 | – | – | – | – | –
C[N+](C)(C)C[C@@H]1COC[C@H](c2ccc([S+]([O-])c3ccccc3)cc2)O1.[I-] (relative stereo) [7a, 1-((2R*,6S*)-6-(4-(Phenylsulfinyl)phenyl)-1,4-dioxan-2-yl)-N,N,N-trimethylmethanaminium Iodide] | <5 | 5.52 ± 0.02 | <5 | 5.21 ± 0.08 | <5 | – | – | – | – | –
C[N+](C)(C)C[C@@H]1COC[C@H](c2ccc(-c3ccccc3)cc2)O1.[I-] (relative stereo) [4a, 1-((2R*,6S*)-6-([1,1′-Biphenyl]-4-yl)-1,4-dioxan-2-yl)-N,N,N-trimethylmethanaminium Iodide] | <5 | 5.06 ± 0.02 | <5 | <5 | <5 | – | – | – | – | –
C[N+](C)(C)C[C@@H]1COC(c2ccccc2)C(c2ccccc2)(c2ccccc2)O1 (stereo in doubt) [19b, 1-((2R*,5R*)-5,6,6-Triphenyl-1,4-dioxan-2-yl)-N,N,N-trimethylmethanaminium Iodide] | – | – | – | – | – | 1100 nM | 2140 nM | 1170 nM | 1450 nM | 550 nM
C[N+](C)(C)C[C@@H]1CO[C@@H](c2ccccc2)[C@@H](c2ccccc2)O1.[I-] (relative stereo) [18c, 1-((2R*,5S*,6R*)-5,6-Diphenyl-1,4-dioxan-2-yl)-N,N,N-trimethylmethanaminium Iodide] | 6.45 ± 0.01 | 6.62 ± 0.08 | 6.40 ± 0.06 | 6.21 ± 0.01 | 7.19 ± 0.07 | – | – | – | – | –
C[N+](C)(C)C[C@@H]1CO[C@@H](C(c2ccccc2)c2ccccc2)CO1.[I-] (relative stereo) [12b, 1-((2R*,5S*)-5-Benzhydryl-1,4-dioxan-2-yl)-N,N,N-trimethylmethanaminium Iodide] | 5.62 ± 0.11 | 6.06 ± 0.08 | 5.52 ± 0.06 | 5.20 ± 0.01 | 6.08 ± 0.07 | – | – | – | – | –
